US9650389B2, “8-oxoprotoberberine derivative or pharmaceutically acceptable salt thereof, preparation method therefor and pharmaceutical composition for preventing or treating diseases associated with activity of NFAT5, containing same as active ingredient” (Korea Research Institute of Chemical Technology, priority 2013, dated 2017)

Legend:
NFAT5 = NFAT5 transcription and nuclear localization in LPS-stimulated RAW264.7 cells; format: cell-based, mouse; conditions: FIG. 4
Procedure: Particularly, RAW264.7 cells were distributed in a 12-well plate at the density of 1.5×10^5 cells/well, followed by culture in 10% FBS-RPMI 1640 medium. The cells were stabilized for a day. The compound of Example 1 was treated thereto at the concentration of 1 μM for 1 hour, and then the cells were stimulated with LPS for 12 hours. 12 hours later, mRNA was extracted from the cells, and cDNA was synthesized therefrom. PCR (real-time PCR) was performed to measure the expression level of NFAT5 mRNA. The migration of the transcription factor NFAT5 from the cytoplasm to the nucleus was investigated. Particularly, RAW264.7 cells were distributed in a 6-well plate at the density of 6×10^5 cells/well, followed by culture in 10% FBS-RPMI 1640 medium. The cells were pre-treated with the compound 6 (1 μM) for 1 hour, and treated with LPS (1 μg/ml) for 24 hours. Cytoplasm and nucleus proteins were separated from the stimulated cells and the levels of NFAT5 and p65 protein (NF-kB subunit) were measured.

[1] = Cytotoxicity test (WST-8), CHO-K1; format: cell-based; conditions: Chinese hamster, CHO-K1 ovary cells; CHO-K1, 24 hours
Procedure: To investigate the cytotoxicity of the derivative of the present invention, 5 kinds of cell lines (VERO: African green monkey kidney cell line, HFL-1: human embryonic lung cell line, L929: NCTC clone 929, mouse fibroblast cell line, NIH 3T3: mouse embryonic fibroblast cell line, and CHO-K1: Chinese hamster ovary cell line) were distributed in a 96-well plate at the density of 1×10^4 cells/well, which were treated with the compound of the present invention for 24 hours. The water-soluble tetrazolium salt WST-8 was added thereto. The orange colored formazan dye degraded by dehydrogenase in the live cells was read, followed by nonlinear regression to determine 50% growth inhibition concentration.

Th17 cells = assay: Differentiation of mouse naïve T cells into Th17 cells; format: cell-based; conditions: Rag2 KO/OVA-TCRtg naïve T cells, 3 days, secreted cytokine protein; compared with berberine; FIG. 12
Procedure: Particularly, the transgenic mouse (Rag2 KO/OVA-TCRtg) naïve T cells were cultured under the condition of Th17 cell differentiation (treated with IL-6, IL-1β, and TGF-β along with APC cells) for 3 days. Compared with berberine known as a Th17 differentiation inhibitor, the inhibitory effect of the NFAT5 inhibitor on the differentiation of Th17 was measured by quantifying the secreted cytokine protein. Cell survival rate under the same condition was also measured by CCK-8.

NFATc = assay: NFAT (NFATc) transcriptional activity, THP1-XBlue-MD2-CD14 cells, SEAP; format: cell-based; conditions: LPS 1 μg/ml, 24 hours, FIG. 2B
Procedure: To evaluate the transcriptional activity of NFAT, THP1-XBlue-MD2-CD14 cells were cultured in 10% FBS-RPMI (supplemented with 200 μg/ml of Zeocin and 250 μg/ml of G418). First, the cells were distributed in a 96-well plate at the density of 2×10^4 cells/well, followed by culture. 1 μg/ml of LPS and the compound of the invention were added thereto, followed by culture for 24 hours. 20 μl of the supernatant was added with 180 μl of secreted embryonic alkaline phosphatase (SEAP) detection medium, followed by culture for 2 hours. Then, OD655 was measured.

[2] = Metabolic stability in human liver microsomes; format: in vitro ADME; conditions: human liver microsome fractions, 30 minutes
Procedure: Particularly, each compound was added to rat and human liver microsome fractions, followed by culture for 30 minutes. Each compound was administered via intravenous injection (iv) and oral-administration (po) to rat at the concentration of 5 mg/kg, followed by making pharmacokinetic profiles.

COX1 = target: T1, COX1 (Ovis aries, UniProt P05979); assay: COX inhibition, COX assay kit (Table 4); format: biochemical
T1 construct: purchased Cayman Co. 760111
T1 sequence (P05979 25-600): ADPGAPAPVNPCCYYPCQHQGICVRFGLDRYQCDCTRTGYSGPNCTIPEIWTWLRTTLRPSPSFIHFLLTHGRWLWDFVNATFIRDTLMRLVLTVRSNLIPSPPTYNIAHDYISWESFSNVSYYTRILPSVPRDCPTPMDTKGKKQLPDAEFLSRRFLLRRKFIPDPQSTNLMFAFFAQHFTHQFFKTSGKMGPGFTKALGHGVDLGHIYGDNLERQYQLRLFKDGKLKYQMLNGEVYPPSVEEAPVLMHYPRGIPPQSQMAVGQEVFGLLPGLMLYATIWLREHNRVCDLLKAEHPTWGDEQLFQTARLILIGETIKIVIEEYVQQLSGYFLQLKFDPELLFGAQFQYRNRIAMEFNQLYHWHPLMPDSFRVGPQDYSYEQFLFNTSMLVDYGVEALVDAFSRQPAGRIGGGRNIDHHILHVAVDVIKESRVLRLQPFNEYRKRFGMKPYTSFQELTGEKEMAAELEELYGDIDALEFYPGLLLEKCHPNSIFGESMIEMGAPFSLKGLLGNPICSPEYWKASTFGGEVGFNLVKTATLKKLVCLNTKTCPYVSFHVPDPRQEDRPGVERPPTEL
Procedure: 10 μl of substrate and 10 μl of arachidonic acid were added thereto, followed by reaction for 10 minutes in the darkness. Then, OD590 was measured.

[3] = test system: NFAT5 transcript BGT1 and AR; assay: NaCl-mediated up-regulation of NFAT5 transcripts (hypertonic condition), RAW264.7 cells, real-time PCR; format: cell-based, mouse; conditions: 1 μM pre-treatment 1 hour, NaCl 45 mM 3 hours
Procedure: It was investigated whether or not the factors regulated by NFAT5 under the hypertonic condition could be affected by the compound of Example 1. Particularly, RAW264.7 cells were distributed in a 6-well plate at the density of 1.5×10^5 cells/well, followed by culture and stabilization in 10% FBS-RPMI 1640 medium. The cells were pre-treated with the compound of Example 1 (1 μM) for 1 hour, and then stimulated with NaCl (45 mM) for 3 hours. mRNA was extracted from the cells, from which cDNA was synthesized.

- remaining compound, Human (%) [2]: 68.2 ± 6.1%
- inhibitory effect on COX1 (in words) (COX1): weak inhibitory effect
- inhibition rate (COX1; Conc. 20 μM, two values per substance): 7.4
- inhibition at 20 µM (COX1; Conc. 20 μM, two values per substance, read-out: inhibition rate): 11.4%
- inhibition rate (COX1; Conc. 100 μM, two values per substance): 23.4
- inhibition at 100 µM (COX1; Conc. 100 μM, two values per substance, read-out: inhibition rate): 28.4%
- IC50 (COX1; Table 4): > 100 µM
SMILES: COc1ccc2c(Cc3ccccc3F)c3n(c(=O)c2c1OC)CCc1cc2c(cc1-3)OCO2 [Example 1, 13-(2-fluorobenzyl)-9,10-dimethoxy-5H-[1,3]dioxolo[4,5-g]isoquinolino[3,2-a]isoquinoline-8(6H)-one]
- increase of NFAT5 expression caused by LPS (from the phase of transcript) (NFAT5; 1 μM for 1 hour, LPS 12 hours, real-time PCR): suppressed
- NFAT5 protein level increased by LPS (cytoplasm/nucleus) (NFAT5; 1 μM pre-treatment 1 hour, LPS 1 μg/ml 24 hours): reduced
- GI50 at 24 h [1]: 12.1 µM
- inhibitory effect on the differentiation of Th17 (Th17 cells): inhibitory effect on the differentiation of Th17 as similar as berberine
- inhibition of NFAT promoter / transcriptional activity (in words) (NFATc): slightly
- NaCl-mediated up-regulation of BGT1 transcript ([3]; FIG. 5A): not changed
- NaCl-mediated up-regulation of AR transcript ([3]; FIG. 5B): not changed
